Data on four compounds can be found in patent publication US20170145005A1, “KINASE INHIBITOR” (THE UNIVERSITY OF TOKYO, priority 2014, published 2017).

In one experiment the target is PIM-3 kinase (Homo sapiens, UniProt Q86V86). Nature of the experiment: Measurement of PIM-3 kinase inhibitory activity (fluorescent substrate peptide, capillary electrophoresis). The following applies: 30 μM ATP, 2 hours at room temperature. It counts as biochemical. The protocol: 1.5 μM of fluorescent substrate peptide (FAM-AKRRRLSSLRA-COOH), 30 μM of ATP, and 0.0833 ng/μL of PIM-3 kinase were incubated with a compound for 2 hours at room temperature, and the Pim-3 kinase activity was measured. The reaction was quantified by separating the substrate and phosphorylation reaction product by capillary electrophoresis (using a Perkin-Elmer EZ reader II) based on the difference in their charges. The results are shown below in Tables 1 and 2.

The subject of experiment [1] is PCI66. Nature of the experiment: Growth inhibitory activity on human pancreatic cancer cell lines (Example 2, WST-8). It counts as cell-based. The following applies: cultured for 96 hours, 2000 cells/well. The protocol: (§1) Two thousand cells of human pancreatic cancer cells lines (L3.6pl, MiaPaca-2, PANC-1, PCI35, PCI66) were seeded in a medium volume of 100 μL in each well of a 96-well microtiter plate. The medium was removed after 18 hours, and 100 μL/well of medium containing the test compound was added. Culture was continued for 72 or 96 hours. The medium containing the test compound was removed, and 100 μL/well of medium containing 10% WST-8 (Dojindo Laboratories Cell Counting kit-8) was added. After culturing for one hour, the OD 450 nm absorbance was measured, and the cell growth inhibitory activity was calculated. Furthermore, RPMI-1640 medium (Sigma) was used as the medium with 10% fetal calf serum (Invitrogen), 50 U/mL penicillin G (Sigma), and 50 μg/mL streptomycin (Sigma) added. The cell lines were cultured at 37° C. in a carbon dioxide incubator with a carbon dioxide concentration of 5%.
(§2) Tables 3 and 4 show the results of compound evaluation when cultured for 96 hours.

In experiment [2] the test system is PCI35. The description is as above. The format is cell-based. The following applies: cultured for 96 hours, 2000 cells/well. The protocol:
as §1, §2

The test system of experiment [3] is MiaPaca-2. The description is as above. The following applies: Homo sapiens, MIA PaCa-2; cultured for 96 hours, 2000 cells/well. It counts as cell-based. The protocol:
as §1, §2

A further experiment relates to PCI66 cells. Nature of the experiment: Animal study: subcutaneous PCI66 tumor in nude mice. It counts as in vivo, BALB/c nu/nu mice. As to conditions: 30 mg/kg intraperitoneal, once a day for five days then two days off, three cycles, from day 14 after tumor injection. The protocol: PCI66 cells, which are human pancreatic cancer cells, were suspended in Hanks balanced salt solution in a concentration of 2×10^7 cells/mL, and 100 μL of the cell suspension was injected subcutaneously to the backs of BALB/c nu/nu mice (SLC, Shizuoka, Japan). Drug administration was begun 14 days after tumor injection. The drug was administered once a day for five days intraperitoneally, then withheld for two days. This cycle was repeated three times. The tumor volume was calculated by the following formula.
Tumor volume(cm^3)=[maximum diameter](cm)×[minimum diameter]^2(cm)/2

Experiment [4] relates to PCI66. Briefly: Growth inhibitory activity on human pancreatic cancer cell lines (Example 4, WST-8). It counts as cell-based. As to conditions: Example 4: 72 hours, 3000 cells/well. On the procedure:
(§3) Three thousand cells of human pancreatic cancer cell lines (L3.6pl, MiaPaca-2, PANC-1, PCI35, and PCI66) were seeded in a medium volume of 90 μL in each well of a 96-well microtiter plate. After 24 hours, 10 μL/well of medium containing the test compound was added. Culture was continued for 72 hours, and 10 μL/well of WST-8 (Dojindo Laboratories Cell Counting kit-8) was added. After culturing for 2 hours, the OD 450 nm absorbance was measured, and the cell growth inhibitory effect was calculated. The cell lines were cultured in a carbon dioxide incubator with a carbon dioxide concentration of 5%.
In general terms: Tetrazolium assays rely on reduction of a dye to a coloured formazan, in cell work by metabolically active cells.

The subject of experiment [5] is PCI35. The experiment is described as above. It counts as cell-based. The following applies: Example 4: 72 hours, 3000 cells/well. On the procedure: as §3
The test system of the next experiment is L3.6pl. The description is as above. It counts as cell-based. As to conditions: Example 4: 72 hours, 3000 cells/well. The protocol:
as §3

The next experiment has as its system PANC-1. The description is as above. It counts as cell-based. As to conditions: Example 4: 72 hours, 3000 cells/well. The protocol: as §3
Experiment [6] concerns MiaPaca-2. Described as above. The format is cell-based. As to conditions: MIA PaCa-2, Example 4: 72 hours, 3000 cells/well. On the procedure: as §3

The term IC50 denotes the concentration at which inhibition is half-maximal. Read a low IC50 as inhibition by little substance. As to `COc1ccc2c(c1C(C)N1CCNCC1)O/C(=C\c1n[nH]c3ncccc13)C2=O` (centres unmarked) [Compound 6, (Z)-2-[(1H-pyrazolo[3,4-b]pyridin-3-yl)methylene]-6-methoxy-7-[1-(piperazin-1-yl)ethyl]benzofuran-3(2H)-one], the IC50 against PIM-3 kinase worked out at 0.0076 µM; with PCI66 [1], 1.8 µM; in the experiment with PCI35 [2] it was 1.8 µM; in the experiment with MiaPaca-2 [3] it was 1.6 µM. Also, in the experiment with PCI66 cells, the tumor volume result is “suppress an increase in tumor volume”.
As for `COc1ccc2c(c1CN1CC3CCC(C1)N3)O/C(=C\c1n[nH]c3ncccc13)C2=O` [Compound 25, (Z)-2-[(1H-pyrazolo[3,4-b]pyridin-3-yl)methylene]-7-[(3,8-diazabicyclo[3.2.1]octan-3-yl)methyl]-6-methoxybenzofuran-3(2H)-one], the IC50 was 3.6 µM in the experiment with PCI66 [4]; 2.8 µM in the experiment on PCI35 [5]; 2.9 µM with L3.6pl; 9.7 µM in the experiment on PANC-1; 1.8 µM in the experiment on MiaPaca-2 [6]; 0.00029 µM at PIM-3 kinase.
For `O=C1/C(=C/c2n[nH]c3ncccc23)Oc2c1ccc(F)c2CC1CCNCC1` [Compound 29, (Z)-2-[(1H-pyrazolo[3,4-b]pyridin-3-yl)methylene]-6-fluoro-7-(piperidin-4-ylmethyl)benzofuran-3(2H)-one], the IC50 was found to be 3.9 µM with PCI66 [4]; 6.8 µM in the experiment with PCI35 [5]; 3.8 µM in the experiment with L3.6pl; 3.3 µM in the experiment with PANC-1; 3.5 µM in the experiment with MiaPaca-2 [6]; 0.0045 µM at PIM-3 kinase.
Consider `COc1ccc2c(c1CN1CCC[C@H](N)C1)O/C(=C\c1n[nH]c3ncccc13)C2=O` [Compound 32, (S,Z)-2-[(1H-pyrazolo[3,4-b]pyridin-3-yl)methylene]-7-[(3-aminopiperidin-1-yl)methyl]-6-methoxybenzofuran-3(2H)-one], for which the IC50 with PCI66 [4] came out at 4.2 µM; in the experiment with PCI35 [5] it was 5.3 µM; in the experiment on L3.6pl, 3.3 µM; in the experiment with PANC-1, 8.1 µM; in the experiment on MiaPaca-2 [6], 2.9 µM; against PIM-3 kinase, 0.00051 µM.
